We go through one molecule from patent US9611222B2, “Pyridine compounds and the uses thereof” (Purdue Pharma L.P., priority 2010, dated 2017).

In the experiment the target is human Nav1.7 (Homo sapiens (Human), UniProt Q15858). The experiment is described as follows: FLIPR or FLIPR TETRA sodium dye assay with KCl and test article pre-incubation. The experiment is classed as cell-based. The settings on record: sodium channel blocking activity, recombinant HEK293 cells, CoroNa Green dye, veratridine + scorpion venom; read-out: Nav1.7 IC50 (μM) ± SEM.
human Nav1.7, sequence (Q15858 with tags, fused parts or gaps limits assumed): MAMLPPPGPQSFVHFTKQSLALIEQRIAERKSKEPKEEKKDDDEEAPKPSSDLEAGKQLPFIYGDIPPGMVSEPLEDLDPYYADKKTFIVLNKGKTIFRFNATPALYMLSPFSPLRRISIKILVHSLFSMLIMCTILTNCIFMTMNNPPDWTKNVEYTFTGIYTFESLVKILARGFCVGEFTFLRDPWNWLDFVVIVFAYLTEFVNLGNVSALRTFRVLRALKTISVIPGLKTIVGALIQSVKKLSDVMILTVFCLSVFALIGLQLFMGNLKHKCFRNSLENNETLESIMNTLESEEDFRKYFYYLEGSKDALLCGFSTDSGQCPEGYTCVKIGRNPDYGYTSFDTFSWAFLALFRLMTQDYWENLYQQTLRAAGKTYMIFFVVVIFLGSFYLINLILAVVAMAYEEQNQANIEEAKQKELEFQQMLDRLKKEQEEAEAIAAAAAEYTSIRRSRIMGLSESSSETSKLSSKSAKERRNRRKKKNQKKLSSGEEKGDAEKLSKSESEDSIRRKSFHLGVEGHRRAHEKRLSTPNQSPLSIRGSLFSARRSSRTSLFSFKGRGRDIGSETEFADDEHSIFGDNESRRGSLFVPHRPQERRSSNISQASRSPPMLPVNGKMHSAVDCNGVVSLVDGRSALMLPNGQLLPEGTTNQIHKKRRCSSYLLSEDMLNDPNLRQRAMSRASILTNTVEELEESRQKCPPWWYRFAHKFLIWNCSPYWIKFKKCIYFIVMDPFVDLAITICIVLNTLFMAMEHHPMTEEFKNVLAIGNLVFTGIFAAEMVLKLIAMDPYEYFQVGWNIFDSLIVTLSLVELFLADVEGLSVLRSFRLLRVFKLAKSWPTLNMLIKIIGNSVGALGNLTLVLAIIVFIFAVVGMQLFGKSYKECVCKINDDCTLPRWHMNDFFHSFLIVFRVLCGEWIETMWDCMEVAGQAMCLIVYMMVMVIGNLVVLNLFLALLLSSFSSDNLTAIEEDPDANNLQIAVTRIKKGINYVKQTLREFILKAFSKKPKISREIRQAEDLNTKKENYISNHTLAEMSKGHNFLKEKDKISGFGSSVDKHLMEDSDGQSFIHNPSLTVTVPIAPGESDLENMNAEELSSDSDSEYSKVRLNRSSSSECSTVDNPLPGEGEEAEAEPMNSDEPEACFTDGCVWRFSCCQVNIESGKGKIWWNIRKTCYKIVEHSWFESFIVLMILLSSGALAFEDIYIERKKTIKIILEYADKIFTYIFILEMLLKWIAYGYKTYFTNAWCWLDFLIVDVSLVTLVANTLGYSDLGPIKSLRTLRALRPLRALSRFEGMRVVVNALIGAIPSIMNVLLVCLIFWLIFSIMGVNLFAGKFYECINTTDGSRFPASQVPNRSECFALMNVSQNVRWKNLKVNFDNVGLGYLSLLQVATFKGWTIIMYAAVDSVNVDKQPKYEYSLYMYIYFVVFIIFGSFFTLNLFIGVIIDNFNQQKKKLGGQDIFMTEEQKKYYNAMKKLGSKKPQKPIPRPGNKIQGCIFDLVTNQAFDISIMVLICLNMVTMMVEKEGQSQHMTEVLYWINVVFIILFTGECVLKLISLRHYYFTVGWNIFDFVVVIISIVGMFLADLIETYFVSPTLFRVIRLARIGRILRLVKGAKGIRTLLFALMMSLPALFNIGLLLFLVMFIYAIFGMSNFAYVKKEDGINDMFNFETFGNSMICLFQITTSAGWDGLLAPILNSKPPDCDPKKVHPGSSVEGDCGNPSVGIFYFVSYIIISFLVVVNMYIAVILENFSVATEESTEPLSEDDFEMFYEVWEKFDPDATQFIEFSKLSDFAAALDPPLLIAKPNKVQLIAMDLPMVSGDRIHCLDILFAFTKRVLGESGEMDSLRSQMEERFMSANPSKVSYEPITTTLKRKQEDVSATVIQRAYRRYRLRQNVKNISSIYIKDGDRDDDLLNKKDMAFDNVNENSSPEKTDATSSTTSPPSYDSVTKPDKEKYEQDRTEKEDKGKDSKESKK

The IC50 is the concentration that gives 50% inhibition. As for `Cc1cc(-c2nnn(CC(N)=O)n2)cc(-c2ccc(Oc3ccc(F)cc3)cc2)n1` [compound 108, 2-(5-(2-(4-(4-fluorophenoxy)phenyl)-6-methylpyridin-4-yl)-2H-tetrazol-2-yl) acetamide], the IC50 came out at 0.13 ± 0.01 µM.
